{"source": "patent US20240058328A1", "about": "“MASITINIB FOR THE TREATMENT OF ALZHEIMER'S DISEASE” (AB SCIENCE, priority 2020, published 2024)", "system": "patients with Alzheimer's disease", "experiment": "Phase 3 study AB09004: change from baseline in ADCS-ADL score", "format": "in vivo, human", "parameters": "key to δLSM (ADCS-ADL): LSM difference in ADCS-ADL change; positive = improvement", "settings": "4.5 mg/kg/day; for ΔLSM (ADCS-ADL): vs placebo, week 24; for δLSM (ADCS-ADL): week 24 from baseline", "description": "An international, multicenter, randomized, double-blind, placebo-controlled phase 3 study was conducted with the objective to evaluate oral masitinib at a dose of 4.5 mg/kg/day as a treatment for Alzheimer's disease.\nEligible patients, aged at least 50 years, were diagnosed with dementia of Alzheimer's type according to Diagnostic and Statistical Manual of Mental Disorders (DSM)-IV criteria, and probable Alzheimer's disease according to NINCDS-ADRDA (National Institute of Neurological and Communicative Diseases and Stroke/Alzheimer's Disease and Related Disorders Association) criteria. […] Patients with any other cause of dementia not due to Alzheimer's disease were ineligible for the study.\nEligible patients were treated during 24 weeks with masitinib at a dose of 4.5 mg/kg/day (mg per kilo body weight per day) or with placebo. Treatment was administered as add-on therapy in patients who had been treated for a minimum of 6 months with a stable dose of cholinesterase inhibitors (donepezil, rivastigmine or galantamine) and/or memantine, with no changes foreseen in therapy throughout the study.\nPrimary analysis was based on the co-primary endpoints of: • Change from baseline in Alzheimer's Disease Cooperative Study Activities of Daily Living (ADCS-ADL) score. The ADCS-ADL assesses the competence of patients with Alzheimer's disease in basic and instrumental activities of daily living (ADLs). • Change from baseline in Alzheimer's Disease Assessment Scale-Cognitive Subscale (ADAS-Cog). The ADAS-Cog assesses cognition and memory.\nTreatment effect (masitinib versus placebo) was assessed based on absolute change from baseline to week 24 by using an analysis of covariance model (ANCOVA linear model) with the following factors: treatment, baseline value, and stratification criteria of baseline MMSE score, age, ADCS-ADL total score, and ADAS-Cog total score.\nFor ADCS-ADL, the global score (i.e., the sum of 23 items rated by the caregiver) was used with a range from 0 to 78, wherein 78 implies full functioning with no impairment. Thus, a higher score signifies greater functional ability, while a lower score signifies greater (worse) impairment. Results are expressed as a least-squares means difference (δLSM) of absolute change in ADCS-ADL score from baseline; that is to say, the change over time in the ADCS-ADL score, or in other words the difference between the ADCS-ADL score at baseline (before treatment initiation) and the ADCS-ADL score after treatment with masitinib or with placebo. An increase in ADCS-ADL score with respect to baseline (i.e., a positive δLSM) indicates an improvement in the patient and therefore disease stability, whereas a decrease in ADCS-ADL score with respect to baseline (i.e., negative δLSM) indicates a worsening in the patient and therefore disease progression. Treatment-effect is reported as the difference between treatment-arms (ΔLSM) (calculated as δLSM[masitinib] minus δLSM[placebo]), with a positive value indicating a beneficial effect of treatment with masitinib as compared to treatment with placebo. In a scenario where both treatment-arms show worsening in activities of daily living (i.e., a negative δLSM), then a positive ΔLSM indicates a beneficial treatment effect for masitinib, i.e., the rate of decline in masitinib treated patients is slower than that of patients from the placebo-arm.\nThe comparison was carried out using the following information: • δLSM: least-squares means difference of absolute change in endpoint score at week 24 from baseline, either according to ADAS-Cog assessment or to ADCS-ADL assessment. • ΔLSM: Difference between treatment-arms (treatment-effect) calculated as δLSM[masitinib] minus δLSM[placebo]. • Δsub/Δoverall: Ratio of subpopulation's placebo-controlled treatment-effect (ΔLSM at W24 for masitinib 4.5 mg/kg/d parallel arm) versus overall study population's placebo-controlled treatment-effect (ΔLSM at W24 for masitinib 4.5 mg/kg/d parallel arm). […]", "key": {"[1]": {"settings": "Baseline ADCS-ADL >47 (Table 11)"}}, "data": [{"smiles": "Cc1ccc(NC(=O)c2ccc(CN3CCN(C)CC3)cc2)cc1Nc1nc(-c2cccnc2)cs1", "note": "[masitinib, 4-(4-methylpiperazin-1-ylmethyl)-N-[4-methyl-3-(4-pyridin-3ylthiazol-2-ylamino)phenyl]benzamide]", "values": [{"measurement": "ΔLSM (ADCS-ADL)", "setting": "Baseline ADAS-Cog >35", "result": "−0.788", "unit": "points"}, {"measurement": "ΔLSM (ADCS-ADL)", "setting": "Baseline ADCS-ADL <32", "result": "−0.9123", "unit": "points"}, {"measurement": "δLSM (ADCS-ADL)", "setting": "Baseline ADCS-ADL <32", "result": 0.8656}, {"measurement": "ΔLSM (ADCS-ADL)", "setting": "Baseline ADCS-ADL <35", "result": 0.2942, "unit": "points"}, {"measurement": "δLSM (ADCS-ADL)", "setting": "Baseline ADCS-ADL <35", "result": 0.9816}, {"measurement": "ΔLSM (ADCS-ADL)", "setting": "Baseline ADCS-ADL <38", "result": "−0.2109", "unit": "points"}, {"measurement": "δLSM (ADCS-ADL)", "setting": "Baseline ADCS-ADL <38", "result": 1.9901}, {"measurement": "ΔLSM (ADCS-ADL)", "setting": "Baseline ADCS-ADL <41", "result": 1.0592, "unit": "points"}, {"measurement": "δLSM (ADCS-ADL)", "setting": "Baseline ADCS-ADL <41", "result": 3.2426}, {"measurement": "ΔLSM (ADCS-ADL)", "setting": "Baseline ADCS-ADL <47", "result": 0.9542, "unit": "points"}, {"measurement": "δLSM (ADCS-ADL)", "setting": "Baseline ADCS-ADL <47", "result": 2.0776}, {"measurement": "ΔLSM (ADCS-ADL)", "setting": "Baseline ADCS-ADL <50", "result": "+0.3062 points"}, {"measurement": "ΔLSM (ADCS-ADL)", "setting": "Baseline ADCS-ADL <50, listed as M4.5, 4.5 mg/kg/day", "result": 0.3062, "unit": "points"}, {"measurement": "δLSM (ADCS-ADL)", "setting": "Baseline ADCS-ADL <50", "result": 1.5300}, {"measurement": "ΔLSM (ADCS-ADL)", "setting": "Baseline ADCS-ADL >39", "result": "+2.0733 points"}, {"measurement": "ΔLSM (ADCS-ADL)", "setting": "Baseline ADCS-ADL >39, listed as M4.5, 4.5 mg/kg/day", "result": 2.0733, "unit": "points"}, {"measurement": "δLSM (ADCS-ADL)", "setting": "Baseline ADCS-ADL >39", "result": 0.6655}, {"measurement": "ΔLSM (ADCS-ADL)", "setting": "[1]", "result": 2.1676, "unit": "points"}, {"measurement": "δLSM (ADCS-ADL)", "setting": "[1]", "result": 1.0869}, {"measurement": "ΔLSM (ADCS-ADL)", "setting": "Baseline ADCS-ADL >55", "result": "+3.1871 points"}, {"measurement": "ΔLSM (ADCS-ADL)", "setting": "Baseline ADCS-ADL >55, listed as M4.5, 4.5 mg/kg/day", "result": 3.1871, "unit": "points"}, {"measurement": "δLSM (ADCS-ADL)", "setting": "Baseline ADCS-ADL >55", "result": 0.8306}, {"measurement": "ΔLSM (ADCS-ADL)", "setting": "Baseline ADCS-ADL ≤39", "result": "+0.7132 points"}, {"measurement": "ΔLSM (ADCS-ADL)", "setting": "Baseline ADCS-ADL ≤39, listed as M4.5, 4.5 mg/kg/day", "result": 0.7132, "unit": "points"}, {"measurement": "δLSM (ADCS-ADL)", "setting": "Baseline ADCS-ADL ≤39", "result": 2.8513}, {"measurement": "ΔLSM (ADCS-ADL)", "setting": "Baseline ADCS-ADL ≤55", "result": "+0.4577 points"}, {"measurement": "ΔLSM (ADCS-ADL)", "setting": "Baseline ADCS-ADL ≤55, listed as M4.5, 4.5 mg/kg/day", "result": 0.4577, "unit": "points"}, {"measurement": "δLSM (ADCS-ADL)", "setting": "Baseline ADCS-ADL ≤55", "result": 1.3484}, {"measurement": "ΔLSM (ADCS-ADL)", "setting": "Baseline ADCS-ADL ≥32", "result": 1.9799, "unit": "points"}, {"measurement": "δLSM (ADCS-ADL)", "setting": "Baseline ADCS-ADL ≥32", "result": 0.9536}, {"measurement": "ΔLSM (ADCS-ADL)", "setting": "Baseline ADCS-ADL ≥35", "result": 2.0209, "unit": "points"}, {"measurement": "δLSM (ADCS-ADL)", "setting": "Baseline ADCS-ADL ≥35", "result": 0.9909}, {"measurement": "ΔLSM (ADCS-ADL)", "setting": "Baseline ADCS-ADL ≥38", "result": "+2.3285 points"}, {"measurement": "ΔLSM (ADCS-ADL)", "setting": "Baseline ADCS-ADL ≥38, listed as M4.5, 4.5 mg/kg/day", "result": 2.3285, "unit": "points"}, {"measurement": "δLSM (ADCS-ADL)", "setting": "Baseline ADCS-ADL ≥38", "result": 1.0071}, {"measurement": "ΔLSM (ADCS-ADL)", "setting": "Baseline ADCS-ADL ≥41", "result": 2.0192, "unit": "points"}, {"measurement": "δLSM (ADCS-ADL)", "setting": "Baseline ADCS-ADL ≥41", "result": 0.8077}, {"measurement": "ΔLSM (ADCS-ADL)", "setting": "Baseline ADCS-ADL ≥47", "result": 2.1676, "unit": "points"}, {"measurement": "δLSM (ADCS-ADL)", "setting": "Baseline ADCS-ADL ≥47", "result": 1.0869}, {"measurement": "ΔLSM (ADCS-ADL)", "setting": "Baseline ADCS-ADL ≥50", "result": "+3.2315 points"}, {"measurement": "ΔLSM (ADCS-ADL)", "setting": "Baseline ADCS-ADL ≥50, listed as M4.5, 4.5 mg/kg/day", "result": 3.2315, "unit": "points"}, {"measurement": "δLSM (ADCS-ADL)", "setting": "Baseline ADCS-ADL ≥50", "result": 0.7638}, {"measurement": "ΔLSM (ADCS-ADL)", "setting": "MMSE <13", "result": "−9.2849", "unit": "points"}, {"measurement": "δLSM (ADCS-ADL)", "setting": "MMSE <13", "result": "−10.9758"}, {"measurement": "ΔLSM (ADCS-ADL)", "setting": "MMSE <14", "result": "−3.5751", "unit": "points"}, {"measurement": "δLSM (ADCS-ADL)", "setting": "MMSE <14", "result": "−4.6507"}, {"measurement": "ΔLSM (ADCS-ADL)", "setting": "MMSE <15", "result": "−0.5657", "unit": "points"}, {"measurement": "δLSM (ADCS-ADL)", "setting": "MMSE <15", "result": "−3.1413"}, {"measurement": "ΔLSM (ADCS-ADL)", "setting": "MMSE <16", "result": "−0.6926", "unit": "points"}, {"measurement": "δLSM (ADCS-ADL)", "setting": "MMSE <16", "result": "−2.3199"}, {"measurement": "ΔLSM (ADCS-ADL)", "setting": "MMSE <17", "result": 0.5605, "unit": "points"}, {"measurement": "δLSM (ADCS-ADL)", "setting": "MMSE <17", "result": "−1.0314"}, {"measurement": "ΔLSM (ADCS-ADL)", "setting": "MMSE [12-20]", "result": "+1.3770 points"}, {"measurement": "ΔLSM (ADCS-ADL)", "setting": "MMSE [12-20], listed as M4.5, 4.5 mg/kg/day", "result": 1.3770, "unit": "points"}]}]}
